Experimental data reported in patent US7083809B2, “Purified cytokine inhibitory factor” (Arkion Life Sciences, LLC, priority 2002, dated 2006).

Columns and labels:
[1] = test system: PGE2 biosynthesis; assay: Inhibition of PGE2 biosynthesis in LPS-stimulated RAW 264.7 cells (EIA); format: cell-based, mouse
Experimental: The assay began with overnight induction of COX-2 through mitogenic (LPS) stimulation of RAW 264.7 cell monolayers. The cell monolayers were then exposed to a test article (e.g. indomethacin) for 30 min at 37° C., and then an exogenous source of arachidonic acid was provided to the system. COX1 and COX2 (in addition to a PGE2 specific synthetase) converted the exogenous arachidonic acid to PGE2. Prostaglandin E2 in the culture medium was then quantified by a commercial EIA system. When less PGE2 was recovered from culture medium containing a test article than was recovered from culture medium alone, the condition was labeled inhibition.
Assay procedure: 5×10^6 Cells in DMEM medium were seeded and incubated in a 37° C., 5% CO2 incubator overnight. At approximately 24 h growth of cells seeded on day 1 (usually 90–100% confluence), growth medium was aseptically decanted and discarded. 10 ml sterile PBSA was gently pipetted into flasks against a non-growth surface, and the cells were washed twice. 10 ml DMEM containing LPS (2 ng/ml) was added to the tested flasks. Flasks were placed in a 37° C., 5% CO2 incubator overnight for 16 h.
At 16 h post-initial LPS exposure, growth medium was aseptically removed (suction) and discarded. 10 ml sterile PBSA was gently pipetted into flasks against a non-growth surface, and the cells were washed twice. Cells were incubated in the presence of 2 ml PBSA, 2 ml positive control drugs, or 2 ml yolk lipids sample (1.0 mg/ml) at 37° C. After 30 min incubation, 222 μl of 300 ΞM arachidonic acid was added to every flask. Cells were incubated for an additional 15 min at 37° C. in presence of the 30 μM arachidonic acid. After the 15 min incubation, 50 μl of 1 mg/ml indomethacin was added to contents of flask to stop the reaction. All fluids from flasks were collected into appropriately labeled polypropylene tubes.
Prostaglandin E2 was assayed with the commercial ELISA kit (Amersham RPN222) at room temperature following the standard protocol.

[2] = test system: IL-1β; assay: LPS-induced cytokine mRNA inhibition assay in THP1 monocytes (RT-PCR); format: cell-based, human; details: THP1 cells
[3] = test system: TNF-α; assay: as above; format: cell-based, human; details: THP1 cells, culture medium
[4] = test system: murine macrophage; details: cited from earlier work
[5] = 20 cancer patients, intravenous pretreatment followed by intravenous endotoxin; cited from earlier work

## CC(C)Cc1ccc(C(C)C(=O)O)cc1 (stereo not shown) [ibuprofen]
[1]
  Inhibition of PGE2 biosynthesis in cells (in words): inhibited

## lipopolysaccharide [LPS]
[2]
  LPS concentration able to induce IL-1b: 0.008 mg/mL
[3]
  LPS concentration of maximum induction for TNFa: around 0.2 mg/ml

## CCCCCCCCCCCCCC(=O)N[C@H]1[C@H](OC[C@H]2O[C@H](OC(CC(=O)O)CC(=O)O)[C@H](NC(=O)CCCCCCCCCCCCC)[C@@H](OC(=O)CNC(=O)CCCCCCCCCCC)[C@@H]2O)O[C@H](CO)[C@@H](OP(=O)(O)O)[C@@H]1OC(=O)CNC(=O)CCCCCCCCCCC [DT-5461a]
[4]
  Induction of TNF-α, IL-1β, IL-6, and GM-CSF: induces

## CCCCCCCCCCC[C@@H](O)CC(=O)N[C@H]1[C@@H](OP(=O)(O)O)O[C@H](CO)[C@@H](OC(=O)C[C@H](O)CCCCCCCCCCC)[C@@H]1OC(=O)C[C@H](O)CCCCCCCCCCC [SDZ MRL 953]
[5]
  Release of TNF-α, IL-1β, IL-8, IL-6, and G-CSF: markedly reduced

## CC(=O)Oc1ccccc1C(=O)O [aspirin]
[1]
  Inhibition of PGE2 biosynthesis in cells (in words): inhibited

## COc1ccc2c(c1)c(CC(=O)O)c(C)n2C(=O)c1ccc(Cl)cc1 [indomethacin]
[1]
  Inhibition of PGE2 biosynthesis in cells (in words): inhibited
